Each structure is given as a SMILES string.

The compound `COc1cc2ncnc(N3CCN(C(=O)NS(=O)(=O)c4ccccc4)CC3)c2cc1OC` [Compound 5, N-Benzenesulfonyl-4-(6,7-dimethoxy-4-quinazolinyl)-1-piperazinecarboxamide] yielded a melting point of 98 to 100 °C.

Take `COc1cc2ncnc(N3CCN(C(=S)NCCc4ccccc4)CC3)c2cc1OC` [Compound 6, 4-(6,7-Dimethoxy-4-quinazolinyl)-N-(2-phenylethyl)-1-piperazinethiocarboxamide]: the melting point was in the range of 76 to 80 °C.

In turn, `COc1cc2ncnc(N3CCN(C(=O)Nc4ccc(C(=O)c5ccccc5)cc4)CC3)c2cc1OC` [Compound 245, N-(4-Benzoylphenyl)-4-(6,7-dimethoxy-4-quinazolinyl)-1-piperazinecarboxamide] showed a melting point of 240 to 241 °C.

In turn, `O=C(Nc1ccc(Oc2ccccc2)cc1)N1CCN(c2ncnc3c(Cl)cc(Cl)cc23)CC1` [Compound 377, 4-(6,8-Dichloro-4-quinazolinyl)-N-(4-phenoxyphenyl)-1-piperazinecarboxamide] displayed a melting point of 195 to 196 °C.

Consider `S=C(NCc1cccnc1)N1CCN(c2ncnc3cc4c(cc23)OCCO4)CC1` [Compound 375, 4-(6,7-Ethylenedioxy-4-quinazolinyl)-N-(3-picolyl)-1-piperazinethiocarboxamide], for which the melting point was in the range of 110 to 113 °C.

Compound `O=C(Nc1ccc(Oc2ccccc2)cc1)N1CCN(c2ncnc3ccc(Br)cc23)CC1` [Compound 303, 4-(6-Bromo-4-quinazolinyl)-N-(4-phenoxyphenyl)-1-piperazinecarboxamide] registered a melting point of 169 to 170 °C.

In turn, `CCCCOc1ccc(NC(=O)N2CCN(c3ncnc4cc(OC)c(OC)cc34)CC2)cc1` [Compound 58, N-(4-Butoxyphenyl)-4-(6,7-dimethoxy-4-quinazolinyl)-1-piperazinecarboxamide] showed a melting point of 213 to 214 °C.

With `S=C(NCc1cccnc1)N1CCN(c2ncnc3ccccc23)CC1` [Compound 286, N-(3-Picolyl)-4-(4-quinazolinyl)-1-piperazinethiocarboxamide], the melting point was 193 to 194 °C.

Take `COC(=O)c1scc(C)c1NC(=S)N1CCN(c2ncnc3cc(OC)c(OC)cc23)CC1` [Compound 261, 4-(6,7-Dimethoxy-4-quinazolinyl)-N-(2-methoxycarbonyl-4-methyl-3-thienyl)-1-piperazinethiocarboxamide]: the melting point is 113 to 116 °C.

In the case of `COc1cc2ncnc(N3CCN(C(=O)NCCc4ccc(Cl)cc4)CC3)c2cc1OC` [Compound 119, N-[2-(4-Chlorophenyl)ethyl]-4-(6,7-dimethoxy-4-quinazolinyl)-1-piperazinecarboxamide], the melting point fell in the range of 177 to 178 °C.

`COc1cc2ncnc(N3CCN(C(=S)Nc4ccc(F)cc4)CC3)c2cc1OC` [Compound 37, 4-(6,7-Dimethoxy-4-quinazolinyl)-N-(4-fluorophenyl)-1-piperazinethiocarboxamide] returned a melting point of 212 to 217 °C.

Compound `COc1cc2ncnc(N3CCN(C(=O)Nc4cc(F)ccc4F)CC3)c2cc1OC` [Compound 51, N-(2,5-Difluorophenyl)-4-(6,7-dimethoxy-4-quinazolinyl)-1-piperazinecarboxamide] showed a melting point of 187 to 189 °C.

Take `Fc1cc2ncnc(N3CCN(C(=S)NCc4ccccc4)CC3)c2cc1F` [Compound 330, N-Benzyl-4-(6,7-difluoro-4-quinazolinyl)-1-piperazinethiocarboxamide]: the melting point lay in the range of 119 to 120 °C.

The compound `COc1cc2ncnc(N3CCN(C(=O)Nc4ccccc4)CC3)c2cc1OC` [Compound 1, 4-(6,7-Dimethoxy-4-quinazolinyl)-N-phenyl-1-piperazinecarboxamide] gave a melting point of 121 to 123 °C.

In the case of `CC(C)c1ccc(NC(=O)N2CCN(c3ncnc4ccc(Cl)cc34)CC2)cc1` [Compound 300, 4-(6-Chloro-4-quinazolinyl)-N-(4-isopropylphenyl)-1-piperazinecarboxamide], the melting point was in the range of 192 to 193 °C.

The compound `COc1cc2cc(Cl)nc(N3CCN(C(=O)Nc4ccc([N+](=O)[O-])cc4)CC3)c2cc1OC` [Compound 114, 4-(3-Chloro-6,7-dimethoxy-1-isoquinolyl)-N-(4-nitrophenyl)-1-piperazinecarboxamide] gave a melting point of 227 to 228 °C.

On to `COc1cc2c(N3CCN(C(=O)Nc4ccc(Oc5ccccc5)cc4)CC3)ncnc2cc1OC(C)C` [Compound 339, 4-(7-Isopropoxy-6-methoxy-4-quinazolinyl)-N-(4-phenoxyphenyl)-1-piperazinecarboxamide], for which the melting point was 157 to 160 °C.

The compound `O=C(Nc1ccc(Oc2ccccc2)cc1)N1CCN(c2ncnc3cc([N+](=O)[O-])ccc23)CC1` [Compound 322, 4-(7-Nitro-4-quinazolinyl)-N-(4-phenoxyphenyl)-1-piperazinecarboxamide] showed a melting point of 146 to 148 °C.

Regarding `COc1cc2ncnc(N3CCN(C(=O)NCc4cccs4)CC3)c2cc1OC` [Compound 259, 4-(6,7-Dimethoxy-4-quinazolinyl)-N-(2-thienylmethyl)-1-piperazinecarboxamide], the melting point fell in the range of 168 to 170 °C.

On to `COc1ccc(NC(=S)N2CCN(c3ncnc4cc(OC)c(OC)cc34)CC2)cc1` [Compound 196, 4-(6,7-Dimethoxy-4-quinazolinyl)-N-(4-methoxyphenyl)-1-piperazinethiocarboxamide], for which the melting point was in the range of 196 to 197 °C.

`CCOc1cc2ncnc(N3CCN(C(=O)Nc4ccc(Br)cc4)CC3)c2cc1OC` [Compound 336, N-(4-Bromophenyl)-4-(7-ethoxy-6-methoxy-4-quinazolinyl)-1-piperazinecarboxamide] yielded a melting point of 210 to 212 °C.

The compound `CCCCn1c(=O)n(CCCC)c2cc3c(N4CCN(C(=O)Nc5ccc(Oc6ccccc6)cc5)CC4)ncnc3cc21` [Compound 390, 4-(1,3-Dibutyl-1,3-dihydro-2-oxo-2H-imidazo[4,5-g]quinazolin-8-yl)-N-(4-phenoxyphenyl)-1-piperazinecarboxamide] registered a melting point of 134 to 136 °C.

Consider `O=C(Nc1ccc(Oc2ccccc2)cc1)N1CCN(c2ccnc3cc(Cl)ccc23)CC1` [Compound 115, 4-(7-Chloro-4-quinolyl)-N-(4-phenoxyphenyl)-1-piperazinecarboxamide], for which the melting point fell in the range of 159 to 161 °C.

For the compound `CCOc1ccc(CNC(=O)N2CCN(c3ncnc4cc(OC)c(OC)cc34)CC2)cc1` [Compound 200, 4-(6,7-Dimethoxy-4-quinazolinyl)-N-(4-ethoxybenzyl)-1-piperazinecarboxamide], the melting point was 176 to 177 °C.

On to `COc1cc2ncnc(N3CCN(C(=S)Nc4ccc(SC)cc4)CC3)c2cc1OC` [Compound 218, 4-(6,7-Dimethoxy-4-quinazolinyl)-N-(4-methylthiophenyl)-1-piperazinethiocarboxamide], for which the melting point is 214 to 216 °C.

The compound `COc1cc2ncnc(N3CCN(C(=O)NCCc4cccs4)CC3)c2cc1OC` [Compound 96, 4-(6,7-Dimethoxy-4-quinazolinyl)-N-[2-(2-thienyl)ethyl]-1-piperazinecarboxamide] showed a melting point of 184 to 185 °C.

In turn, `Cc1ccc2ncnc(N3CCN(C(=O)Nc4ccc([N+](=O)[O-])cc4)CC3)c2c1` [Compound 293, 4-(6-Methyl-4-quinazolinyl)-N-(4-nitrophenyl)-1-piperazinecarboxamide] displayed a melting point of 126 to 129 °C.

As to `O=C(Nc1ccc(Oc2ccccc2)cc1)N1CCN(c2cc(C(F)(F)F)nc3ccccc23)CC1` [Compound 397, N-(4-Phenoxyphenyl)-4-(2-trifluoromethyl-4-quinolyl)-1-piperazinecarboxamide], the melting point lay in the range of 203 to 204 °C.

`COc1cc2ncnc(N3CCN(C(=S)Nc4ccc(SC(F)(F)F)cc4)CC3)c2cc1OC` [Compound 220, 4-(6,7-Dimethoxy-4-quinazolinyl)-N-(4-trifluoromethylthiophenyl)-1-piperazinethiocarboxamide] registered a melting point of 128 to 131 °C.

On to `CCOc1cc2ncnc(N3CCN(C(=S)NCc4cccnc4)CC3)c2cc1OC` [Compound 338, 4-(7-Ethoxy-6-methoxy-4-quinazolinyl)-N-(3-picolyl)-1-piperazinethiocarboxamide], for which the melting point fell in the range of 169 to 170 °C.

In turn, `CCOc1cc2ncnc(N3CCN(C(=O)Nc4ccc(Oc5ccccc5)cc4)CC3)c2cc1F` [Compound 332, 4-(7-Ethoxy-6-fluoro-4-quinazolinyl)-N-(4-phenoxyphenyl)-1-piperazinecarboxamide] came in with a melting point of 197 to 198 °C.

In turn, `Cc1ccc2c(N3CCN(C(=O)Nc4ccc([N+](=O)[O-])cc4)CC3)ncnc2c1` [Compound 313, 4-(7-Methyl-4-quinazolinyl)-N-(4-nitrophenyl)-1-piperazinecarboxamide] returned a melting point of 251 to 254 °C.

`Cl.Cl.S=C(NCc1cccnc1)N1CCN(c2ccnc3ccccc23)CC1` returned a melting point of 183 to 185 °C.

With `CCCC(=O)c1ccc(NC(=S)N2CCN(c3ncnc4cc(OC)c(OC)cc34)CC2)cc1` [Compound 244, N-(4-Butyrylphenyl)-4-(6,7-dimethoxy-4-quinazolinyl)-1-piperazinethiocarboxamide], the melting point was 218 to 219 °C.

Consider `O=C(Nc1ccc(Oc2ccccc2)cc1)N1CCN(c2ccnc3cc(C(F)(F)F)ccc23)CC1` [Compound 404, N-(4-Phenoxyphenyl)-4-(7-trifluoromethyl-4-quinolyl)-1-piperazinecarboxamide], for which the melting point fell in the range of 163 to 164 °C.

With `COc1cc2ncnc(N3CCN(C(=S)Nc4ccc(I)cc4)CC3)c2cc1OC` [Compound 47, 4-(6,7-Dimethoxy-4-quinazolinyl)-N-(4-iodophenyl)-1-piperazinethiocarboxamide], the melting point is 129 to 132 °C.

The compound `CCNc1cc2ncnc(N3CCN(C(=O)Nc4ccc(Oc5ccccc5)cc4)CC3)c2cc1[N+](=O)[O-]` [Compound 109, 4-(7-Ethylamino-6-nitro-4-quinazolinyl)-N-(4-phenoxyphenyl)-1-piperazinecarboxamide] gave a melting point of 242 to 244 °C.

As for `O=C(Nc1ccc(Oc2ccccc2)cc1)N1CCN(c2ncnc3ccccc23)CC1` [Compound 104, N-(4-Phenoxyphenyl)-4-(4-quinazolinyl)-1-piperazinecarboxamide], the melting point is 74 to 75 °C.

By melting point is commonly meant the temperature of the solid-liquid transition.

These data come from patent US6472391B2, “Nitrogen-containing heterocyclic compounds” (Millennium Pharmaceuticals, Inc., priority 1996, dated 2002).
